Laboratory results published in publication PMC5007443, “TNIK inhibition abrogates colorectal cancer stemness” (Nature Communications, 2016).

What was measured:
[1] = system: TCF/LEF transcriptional activity; assay: TCF/LEF luciferase reporter in Wnt3a-treated HEK293 cells; format: cell-based, human; conditions: Wnt3a-treated HEK293, 24 h
Description: HEK293 cells were transiently transfected with pGL4.49[luc2P/TCF-LEF-RE/Hygro] reporter vector (Promega) using Fugene HD Transfection Reagent (Promega; Fig. 2f). After overnight incubation, the cells were then treated with 10 mM LiCl (Sigma-Aldrich). Luciferase activity was measured using the ONE-Glo Luciferase Assay System (Promega). The assay was performed in triplicate and repeated at least two times.
In some experiments cells were treated with mouse Wnt3a (PeproTech) (Fig. 1c) or human Wnt3a (R&D Systems; Fig. 2f) before the measurements, as indicated in the figure legends.

[2] = system: TNIK, AXIN2, c-MYC, LRP6, LRP5 proteins; assay: Immunoblotting of TNIK, AXIN2, c-MYC, LRP6, LRP5 in HCT116 and DLD-1 cells; format: cell-based, human; conditions: HCT116 and DLD-1, 48 h
Description: (§1) Protein samples were fractionated by SDS–PAGE and blotted onto Immobilon-P membranes (Millipore) as described previously. After incubation with the primary antibodies (listed in Supplementary Table 4) at 4 °C overnight, the blots were detected with the relevant horseradish peroxidase-conjugated anti-mouse or anti-rabbit IgG antibody (Cell Signaling Technology) and Western lighting ECL Pro (PerkinElmer). Signals were visualized with the LAS-4010 system (GE Healthcare). Uncropped versions of the blots in Figs 2e and 3f are shown in Supplementary Fig. 15.

[3] = system: HCT116 xenografts; assay: HCT116 xenograft growth in BALB/c-nu/nu mice; format: in vivo, mouse; conditions: oral, 40 or 80 mg kg−1 BID, 14 days
Description: Five million HCT116 cells suspended in medium containing 25% Matrigel (BD Biosciences) were inoculated into the subcutaneous tissues of 9-week-old female BALB/c nude mice. When the tumour volume reached ∼80 mm^3, the mice were randomized according to tumour volume (9 mice per group).
(§2) Tumour volume was estimated based on the formula: (length × width^2)/2. The tumour volume (twice a week) and body weight (every day) of each mouse were recorded. The patient-derived spheroids and xenografts were established after obtaining informed consent from the donors.

[4] = system: Wnt-target genes (AXIN2, MYC and CCND1); assay: Pharmacodynamics: Wnt-target gene expression in HCT116 xenografts, RT-PCR; format: in vivo, mouse; conditions: single oral dose 90 or 150 mg kg−1 NCB-0846 HCl
Description: Total RNA was prepared with an RNeasy Mini Kit (Qiagen). cDNA was synthesized using SuperScript II reverse transcriptase (Thermo Fisher Scientific) or a High-Capacity cDNA reverse transcription kit (Thermo Fisher Scientific) and subjected to TaqMan gene expression assay using pre-designed primer and probe sets (listed in Supplementary Table 3). Amplification data measured as an increase in reporter fluorescence were collected using the StepOne Real-Time PCR System (Thermo Fisher Scientific). The relative mRNA expression level normalized to the internal control (human/mouse β-actin (ACTB/Actb1) gene) was calculated by the comparative threshold cycle (CT) method. Experiments were performed in triplicate and repeated at least two times.

[5] = system: HCT116 cells; assay: PARP-1 cleavage, immunoblotting; format: cell-based, human; conditions: HCT116, 1 μM, 24 or 48 h
Description: as §1

[6] = system: Apc^min/+ mice; assay: Intestinal tumorigenesis in Apc min/+ mice; format: in vivo, mouse; conditions: NCB-0846 HCl oral BID 22.5, 45, 90 mg kg−1, 35 days
Description: The mouse gut was filled with 10% buffered formalin (Sigma-Aldrich) via the anus immediately after sacrifice and opened longitudinally. The number and maximum diameter/area of tumours were measured by stereoscopic microscopy as described previously. Differences at P values of<0.05 were considered to be statistically significant.

[7] = system: HCT116 cells; assay: CSC surface marker flow cytometry in HCT116 cells; format: cell-based, human; conditions: HCT116, 1 µM, 96 hours
Description: Cells were collected with Accutase, washed with stain buffer (BD Pharmingen), resuspended in 100 μl stain buffer (5 × 10^5 cells per 100 μl), and incubated with fluorophore-conjugated antibodies or their corresponding isotype-matched control antibodies (Supplementary Table 4) at 4 °C for 30 min. The cells were then washed twice and resuspended in 500 μl of stain buffer. 7-Aminoactinomycin D (7AAD; BD Pharmingen) was added to the samples before analysis. Relative fluorescence intensities were measured using a Guava easy Cyte HT flow cytometer following exclusion of dead cells on the basis of 7AAD incorporation. Data analysis was performed using Guava InCyte software (Merck-Millipore). Experiments were performed in triplicate and repeated at least two times.

[8] = system: TCF/LEF transcriptional activity of spheroid clone #6 Cl. 2; assay: Spheroid TCF/LEF GFP reporter assay; format: cell-based; conditions: Homo sapiens, read-out: IC50, reduction of cells expressing Wnt-driven GFP
From the text: Lentiviral gene transfer of the reporter gene was used to evaluate the TCF/LEF transcriptional activity of patient-derived spheroids due to their poor transfection efficiency. Spheroids were infected with TCF/LEF reporter lentiviral particles encoding the green fluorescent protein (GFP) gene under the control of the TCF/LEF-responsive promoter (Cignal Lenti TCF/LEF Reporter (GFP) (Qiagen)) or relevant negative control lentiviral particles (Cignal Lenti negative control (GFP) (Qiagen)) at a multiplicity of infection of 10 in the presence of 4 μg ml^−1 SureEntry Transduction Reagent (Qiagen) for 24 h. GFP-positive spheroids were cloned by limiting dilution in the presence of 2 μg ml^−1 puromycin (Sigma-Aldrich; Fig. 6a,b).
GFP-positive cells were detected using the Guava easy Cyte HT flow cytometer (Fig. 6c). Experiments were performed in triplicate and repeated at least two times.

[9] = system: patient-derived colon cancer spheroid #6 xenograft; assay: Xenograft of patient-derived spheroid #6 in NOD/ShiJic-scid mice; format: in vivo, mouse; conditions: NCB-0846 HCl oral 50 or 100 mg kg−1 BID, 6-days-on, 1-day-off
From the text: (§3) Patient-derived colorectal cancer spheroids were dissociated, resuspended in medium containing 50% Matrigel (Corning), and inoculated subcutaneously (#6; 1 × 10^4 cells per injection, #19; 1 × 10^5 cells per injection) into the flank of female NOD/ShiJic-scid mice (4-week-old females; CLEA Japan). When the tumour volume reached ∼200 mm^3, the mice were randomized according tumour volume (10 mice per group) and treatment was started.
as §2

[10] = system: patient-derived colon cancer spheroid #19 xenograft; assay: Xenograft of patient-derived spheroid #19 in NOD/ShiJic-scid mice; format: in vivo, mouse; conditions: NCB-0846 HCl oral 50 or 100 mg kg−1 BID, 6-days-on, 1-day-off
From the text: as §3, §2

[11] = system: PDX COX021; assay: Patient-derived xenograft COX021 in Nu/Nu nude mice; format: in vivo, mouse; conditions: COX021, NCB-0846 HCl oral 45 or 90 mg/kg BID, 5-day on, 2-day off
Description: (§4) Patient-derived colorectal cancer xenografts […] were established by Shanghai ChemPartner. Female Nu/Nu nude mice aged 5–6 weeks were implanted subcutaneously with the xenografts and randomized into three treatment groups (10 mice per group) based on the developed tumour volume (∼200 mm^3).
as §2

[12] = system: PDX COX026; assay: Patient-derived xenograft COX026 in Nu/Nu nude mice; format: in vivo, mouse; conditions: COX026, NCB-0846 HCl oral 45 or 90 mg/kg BID, 5-day on, 2-day off
Description: as §4, §2

For `O[C@H]1CC[C@@H](Oc2cccc3cnc(Nc4ccc5nc[nH]c5c4)nc23)CC1` [NCB-0846, cis-4-(2-(3H-benzo[d]imidazol-5-ylamino)quinazolin-8-yloxy)cyclohexanol], the TCF/LEF transcriptional activity [1] was “inhibited”, the “LRP6 and LRP5 protein expression” value [2] was “downregulated” and the “expression of TNIK, AXIN2 and cMYC at the protein level” value [2] was “reduced”. For the same molecule, the growth of tumours [3] was “suppressed”, the “expression of Wnt-target genes (AXIN2, MYC and CCND1) in xenografts” value [4] was “reduced” and the “Cleavage of PARP-1” value [5] was “induction of apoptosis”. For the same molecule, the “effect on colon tumorigenesis” value [6] was “not statistically significant”, the “multiplicity and dimensions of tumours in the small intestine” value [6] was “dose dependently reduced” and the “proportion of cells showing high expression of CSC surface markers (CD44, CD133, CD166, CD29 and EpCAM)” value [7] was “reduced”. The IC50 [8] was 480 nM, the growth of tumours [9] was “suppressed” and the growth of tumours [10] was “suppressed”. For the same molecule, the “growth of the PDXs” value [11] was “significantly suppressed” and the “growth of the PDXs” value [12] was “significantly suppressed”.
